Key:
[1] = biological target: T1, His-p38α:PROTAC:GST-VBC ternary complex (Homo sapiens, UniProt P40337+Q16539); assay: AlphaLISA ternary complex assay; assay type: binding; conditions: increasing PROTAC concentrations; VBC and p38α 150 nM
T1 construct: encodes a region spanning amino acids 2-360 of the human p38α kinase; made in house; host or cells: E. coli (BL21-CodonPlus(DE3)-RIPL for p38α; BL21(DE3) for GST-VBC)
Protocol: (§1) FIGS. 14A, 14B, and 14C. p38α selectivity is discriminated by ternary complex formation. (A) Only p38α incubated in the presence of exemplary compound 50 can be immunoprecipitated with GST-tagged VHL/EloB/EloC (VBC). Immobilized VBC was used as a bait to trap purified p38α in the presence of vehicle (DMSO), compound 50, or compound 46 (represented in micromolar concentrations). The rightmost lane represents a 1:25 dilution of initial input protein used in each pull-down. (B) Proximity-based AlphaLISA assay detects significant p38α:compound 50:VHL ternary complex, but no p38α:compound 46:VHL ternary complex. His-p38α and GST-VBC were incubated in the presence of increasing concentrations of compound 50 and compound 46 and the extent of ternary complex formation was assessed by excitation with incident light with 1=680 nm and capture of the emission light at 1=615 nm. Error bars represent the SD from quadruplicate experiments. […] FLAGimmunoprecipitated lysates were separated by SDS-PAGE and assessed via western blots detecting HA (Ub). […]
Following this logic, to the present disclosure seeks to describe the selectivity of exemplary compound 50 for p38α at the ternary complex level through the use of an in vitro ternary complex pull-down assay. […] Similarly, exemplary PROTACs 46 and 50 were evaluated in a proximity-based luminescence assay (AlphaLISA) to detect ternary complex formation. […]

FLAG-p38α = biological target: T2, FLAG-p38α (Homo sapiens, UniProt Q16539); assay: Ubiquitination assay, HeLa cells co-transfected with HA-Ub and FLAG-p38α; assay type: cell-based; conditions: 500 nM, 1 hour
T2 construct: expressed in transfected cells; host or cells: HeLa
Protocol: as §1, with “experiments. (C) Only exemplary compound 50 ubiquitinates FLAG-p38α in HeLa cells.” for “experiments.”
HeLa cells (2×10^6) were seeded into 10 cm dishes and allowed to adhere overnight. […] Lysates were spun down at 14,000×g at 4° C. for 20 minutes and protein content was measured by Pierce BCA Protein Assay (ThermoFisher Scientific). […]

T2 sequence (Q16539 whole entry): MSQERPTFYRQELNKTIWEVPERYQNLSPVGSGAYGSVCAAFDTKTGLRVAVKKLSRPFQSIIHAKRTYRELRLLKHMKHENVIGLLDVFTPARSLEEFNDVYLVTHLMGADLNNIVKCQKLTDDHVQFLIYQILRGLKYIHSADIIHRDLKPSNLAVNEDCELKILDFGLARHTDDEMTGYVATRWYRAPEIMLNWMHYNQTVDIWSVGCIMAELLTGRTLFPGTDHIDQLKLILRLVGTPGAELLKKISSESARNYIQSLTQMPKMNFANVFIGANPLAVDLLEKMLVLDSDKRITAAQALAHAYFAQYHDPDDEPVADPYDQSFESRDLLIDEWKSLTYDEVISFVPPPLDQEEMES
T1 sequence (Q16539 2-360 limits assumed): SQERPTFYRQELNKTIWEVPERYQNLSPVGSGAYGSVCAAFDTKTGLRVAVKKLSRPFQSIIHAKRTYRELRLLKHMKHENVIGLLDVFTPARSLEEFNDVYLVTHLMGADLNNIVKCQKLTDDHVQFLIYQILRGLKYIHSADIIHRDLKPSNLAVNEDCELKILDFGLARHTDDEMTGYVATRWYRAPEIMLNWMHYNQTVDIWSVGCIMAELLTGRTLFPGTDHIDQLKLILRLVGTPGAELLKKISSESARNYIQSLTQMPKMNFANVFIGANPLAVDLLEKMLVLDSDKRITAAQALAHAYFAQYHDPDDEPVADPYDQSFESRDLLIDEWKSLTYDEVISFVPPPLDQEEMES
T1 sequence (P40337 whole entry, the tested form may be a part): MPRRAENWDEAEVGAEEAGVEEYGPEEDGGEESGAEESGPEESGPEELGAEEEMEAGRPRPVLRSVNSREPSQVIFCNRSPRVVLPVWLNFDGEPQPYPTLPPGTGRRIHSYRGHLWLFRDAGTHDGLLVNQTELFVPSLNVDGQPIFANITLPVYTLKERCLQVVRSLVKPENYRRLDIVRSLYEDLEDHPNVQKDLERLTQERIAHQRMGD
T1 sequence (Q15370 whole entry partner, the tested form may be a part): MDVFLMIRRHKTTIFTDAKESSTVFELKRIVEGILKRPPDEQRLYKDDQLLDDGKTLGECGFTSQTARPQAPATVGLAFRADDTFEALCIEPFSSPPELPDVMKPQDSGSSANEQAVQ
T1 sequence (Q15369 whole entry partner, the tested form may be a part): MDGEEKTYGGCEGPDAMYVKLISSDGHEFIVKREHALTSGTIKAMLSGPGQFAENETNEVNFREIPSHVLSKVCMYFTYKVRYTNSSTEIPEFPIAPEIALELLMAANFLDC

Compound	p38α:PROTAC:VHL ternary complex formation (AlphaLISA) [1]	ubiquitination of FLAG-p38α (FLAG-p38α)
COc1cc2c(Oc3ccc(NC(=O)C4(C(=O)Nc5ccc(F)cc5)CC4)cc3F)ccnc2cc1OCCOCCOCCOc1cc(-c2scnc2C)ccc1CNC(=O)[C@@H]1C[C@@H](O)CN1C(=O)[C@H](C(C)C)N1Cc2ccccc2C1=O [compound 46]	no such ternary species is detectable	this effect was not seen
COc1cc2c(Oc3ccc(NC(=O)C4(C(=O)Nc5ccc(F)cc5)CC4)cc3F)ccnc2cc1OCCCCOCCCCOCC(=O)N[C@H](C(=O)N1C[C@H](O)C[C@H]1C(=O)NCc1ccc(-c2scnc2C)cc1)C(C)(C)C [compound 50, N-(3-fluoro-4-((7-(4-(4-(2-(((S)-1-((2S,4R)-4-hydroxy-2-((4-(4-methylthiazol-5-yl)benzyl)carbamoyl)pyrrolidin-1-yl)-3,3-dimethyl-1-oxobutan-2-yl)amino)-2-oxoethoxy)butoxy)buto-xy)-6-methoxyquinolin-4-yl)oxy)phenyl)-N-(4-fluorophenyl)cyclopropane-1,1-dicarboxa-mide]	displays a ternary VHL:PROTAC:p38α complex	substantial ubiquitination

Source: patent publication US20180353501A1 (Arvinas, Inc., priority 2017, published 2018)
